Measurements from ChEMBL document CHEMBL4346678, “Synthesis and anti-cancer evaluation of folic acid-peptide- paclitaxel conjugates for addressing drug resistance” (Eur J Med Chem, 2019).
≈ marks a conversion by molar mass, not a printed value. Calls of active or inactive are those of the source. The rule behind the calls is not given here. Starred links: 1 amine or outer side, 2 acyl side, 3 side chain; linkers in the order of their positions; H or OH if unused. Residues, ends and D or L forms follow the SMILES beside them. *: point of attachment. X1 = CC(=O)O[C@H]1C(=O)[C@@]2(C)[C@H]([C@H](OC(=O)c3ccccc3)[C@]3(O)C[C@H](OC(=O)[C@H](OC(=O)CCCCCN4C(=O)CC(*)C4=O)[C@@H](NC(=O)c4ccccc4)c4ccccc4)C(C)=C1C3(C)C)[C@]1(OC(C)=O)CO[C@@H]1C[C@@H]2O; Pteroyl = Nc1nc2ncc(CNc3ccc(C(=O)*)cc3)nc2c(=O)[nH]1; γGlu = O=C(O)[C@H](CCC(=O)[*:2])N[*:1]

How the values were obtained:
Erythrocyte = test: Hemolytic activity in Wistar rat erythrocytes incubated for 1 hr; format: ADME, cell-based
MCF7/PTX [1] = test: Induction of membrane disruption in human MCF7/PTX cells incubated for 12 hrs by LDH release assay; format: functional, cell-based
MCF7 [2] = test: Cytotoxicity against human MCF7 cells incubated for 48 hrs by MTT assay; format: functional, cell-based; conditions: MCF7, 48 h
SK-OV-3 = test: Cytotoxicity against human SKOV3 cells incubated for 48 hrs by MTT assay; format: functional, cell-based; conditions: SK-OV-3, 48 h
MCF7/PTX [3] = test: Induction of membrane disruption in human MCF7/PTX cells at 3 uM incubated for 12 hrs by AO/EB double staining based fluorescence microscopic method; format: functional, cell-based
K562 = test: Cytotoxicity against human K562 cells incubated for 48 hrs by MTT assay; format: functional, cell-based; conditions: K562, 48 h
A2780 = test: Cytotoxicity against human A2780 cells incubated for 48 hrs by MTT assay; format: functional, cell-based; conditions: A2780, 48 h
[4] = Drug uptake in human MCF7/PTX cells at 1 to 6 uM incubated for 2 hrs using FITC-labelled compound by flow cytometric analysis; format: ADME, cell-based
HUVEC = test: Cytotoxicity against HUVEC incubated for 48 hrs by MTT assay; format: cell-based; conditions: Homo sapiens
MCF7/PTX [5] = test: Cytotoxicity against human MCF7/PTX cells at 1 to 6 uM incubated for 48 hrs by MTT assay; format: functional, cell-based
MCF7/PTX [6] = test: Induction of apoptosis in human MCF7/PTX cells assessed as late apoptotic cells at 3 uM incubated for 12 hrs by Annexin V-FITC/propidium iodide staining based flow cytometric analysis (reference value: 0.9%); format: functional
MCF7/PTX [7] = test: Induction of apoptosis in human MCF7/PTX cells assessed as early apoptotic cells at 3 uM incubated for 12 hrs by Annexin V-FITC/propidium iodide staining based flow cytometric analysis (reference value: 1.1%); format: functional
MCF7/PTX [8] = test: Induction of apoptosis in human MCF7/PTX cells assessed as necrotic cells at 3 uM incubated for 12 hrs by Annexin V-FITC/propidium iodide staining based flow cytometric analysis (reference value: 2.1%); format: functional
MCF7/PTX [9] = test: Induction of apoptosis in human MCF7/PTX cells assessed as live cells at 3 uM incubated for 12 hrs by Annexin V-FITC/propidium iodide staining based flow cytometric analysis (reference value: 95.9%); format: functional
MCF7/PTX [10] = test: Cytotoxicity against human MCF7/PTX cells incubated for 48 hrs by MTT assay; format: functional, cell-based
MCF7/PTX [11] = test: Induction of mitochondrial membrane potential loss in human MCF7/PTX cells at 3 uM incubated for 12 hrs by JC1 staining-based confocal microscopic method; format: functional, cell-based
MCF7/PTX [12] = test: Induction of apoptosis in human MCF7/PTX cells assessed as increase in cleaved caspase 3 level in cytoplasm at 3 uM incubated for 2 hrs by Western blot analysis; format: functional, cell-based
MCF7/PTX [13] = test: Induction of apoptosis in human MCF7/PTX cells assessed increase in cytochrome-c expression in cytoplasm at 3 uM incubated for 2 hrs by Western blot analysis; format: functional, cell-based
MCF7 [14] = test: Cytotoxicity against human MCF7 cells at 1 to 6 uM incubated for 48 hrs by MTT assay; format: functional, cell-based
MCF7/PTX [15] = test: Induction of membrane disruption in human MCF7/PTX cells incubated for 12 hrs by AO/EB double-staining based fluorescence microscopic method; format: functional, cell-based
[16] = Antitumor activity against […] cells xenografted in ICR mouse assessed as reduction in tumor volume at 12 umol/kg administered once every 2 days via peritumoral route for 2 weeks measured for 22 days by caliper analysis relative to control; format: functional
[17] = Aqueous solubility of the compound; format: physicochemical; conditions: buffer
Tubulin (Sus scrofa) = Tubulin (Sus scrofa) (UniProt P02554+P02550); test: Induction of porcine brain tubulin polymerization at 3 uM by fluorescence analysis
Tubulin (Sus scrofa), sequence (P02550 whole entry, looked up): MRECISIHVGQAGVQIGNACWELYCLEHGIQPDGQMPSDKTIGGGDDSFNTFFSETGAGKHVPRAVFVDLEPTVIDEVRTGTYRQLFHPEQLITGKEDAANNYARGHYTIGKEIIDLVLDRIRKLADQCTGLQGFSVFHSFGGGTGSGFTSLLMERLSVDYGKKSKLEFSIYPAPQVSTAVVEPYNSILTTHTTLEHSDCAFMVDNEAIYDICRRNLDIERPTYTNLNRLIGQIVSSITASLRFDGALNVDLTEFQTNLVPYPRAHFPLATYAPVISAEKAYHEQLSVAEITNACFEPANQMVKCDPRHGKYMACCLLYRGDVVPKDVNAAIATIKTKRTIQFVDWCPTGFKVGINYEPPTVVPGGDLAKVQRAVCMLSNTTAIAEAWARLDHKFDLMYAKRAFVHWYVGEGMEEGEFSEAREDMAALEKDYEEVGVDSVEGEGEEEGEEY
Tubulin (Sus scrofa), sequence (P02554 whole entry, looked up): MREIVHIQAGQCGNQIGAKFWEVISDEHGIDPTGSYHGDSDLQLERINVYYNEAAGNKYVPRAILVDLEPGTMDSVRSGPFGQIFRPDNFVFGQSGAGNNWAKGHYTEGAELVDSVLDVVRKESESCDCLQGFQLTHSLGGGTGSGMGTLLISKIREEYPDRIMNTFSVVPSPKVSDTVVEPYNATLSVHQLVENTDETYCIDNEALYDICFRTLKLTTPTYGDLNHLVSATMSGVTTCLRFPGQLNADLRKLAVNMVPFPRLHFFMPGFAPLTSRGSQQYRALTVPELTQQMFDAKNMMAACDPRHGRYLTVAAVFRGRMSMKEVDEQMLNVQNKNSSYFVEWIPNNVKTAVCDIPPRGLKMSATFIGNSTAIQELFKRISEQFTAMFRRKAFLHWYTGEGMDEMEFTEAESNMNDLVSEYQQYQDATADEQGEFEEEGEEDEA

MCF7/PTX [18] = test: Induction of apoptosis in human MCF7/PTX cells assessed as early apoptotic cells at 3 uM incubated for 12 hrs by Annexin V-FITC/propidium iodide staining based flow cytometric analysis in presence of paclitaxel (reference value: 1.1%); format: functional
MCF7/PTX [19] = test: Induction of apoptosis in human MCF7/PTX cells assessed as necrotic cells at 3 uM incubated for 12 hrs by Annexin V-FITC/propidium iodide staining based flow cytometric analysis in presence of paclitaxel (reference value: 2.1%); format: functional
MCF7/PTX [20] = test: Induction of apoptosis in human MCF7/PTX cells assessed as late apoptotic cells at 3 uM incubated for 12 hrs by Annexin V-FITC/propidium iodide staining based flow cytometric analysis in presence of paclitaxel (reference value: 0.9%); format: functional
[21] = Half life in Wistar rat plasma at 500 ug/ml measured over 24 hrs at 37 degC by UPLC/MS analysis; format: ADME, cell-free
MCF7/PTX [22] = test: Induction of apoptosis in human MCF7/PTX cells assessed as live cells at 3 uM incubated for 12 hrs by Annexin V-FITC/propidium iodide staining based flow cytometric analysis in presence of paclitaxel (reference value: 95.9%); format: functional

Drug uptake [4] | Compound | Activity (Erythrocyte) | Activity (MCF7/PTX [1]) | IC50 (MCF7 [2]) [µM] | IC50 (SK-OV-3) [µM] | Activity (MCF7/PTX [3]) | IC50 (K562) [µM] | IC50 (A2780) [µM] | IC50 (HUVEC) [µM] | Activity (MCF7/PTX [5]) | Activity (MCF7/PTX [6]) [%] | Activity (MCF7/PTX [7]) [%] | Activity (MCF7/PTX [8]) [%] | Activity (MCF7/PTX [9]) [%] | IC50 (MCF7/PTX [10]) [µM] | other results
Active | CC(=O)O[C@H]1C(=O)[C@@]2(C)[C@H]([C@H](OC(=O)c3ccccc3)[C@]3(O)C[C@H](OC(=O)[C@H](OC(=O)CCCCCN4C(=O)CC(SC[C@H](NC(=O)[C@H](CCCCN)NC(=O)[C@H](CCCCN)NC(=O)[C@H](CC(C)C)NC(=O)[C@H](CCCCN)NC(=O)[C@H](CCCNC(=N)N)NC(=O)[C@H](Cc5ccccc5)NC(=O)[C@H](Cc5ccccc5)NC(=O)[C@H](CCCCN)NC(=O)[C@H](CCCCN)NC(=O)[C@H](Cc5ccccc5)NC(=O)[C@H](CCCNC(=N)N)NC(=O)[C@H](CCCCN)NC(=O)[C@@H](NC(=O)[C@@H](N)CC(C)C)C(C)C)C(=O)N[C@H](C(=O)N[C@@H](CC(C)C)C(=O)N[C@@H](CC(C)C)C(N)=O)C(C)C)C4=O)[C@@H](NC(=O)c4ccccc4)c4ccccc4)C(C)=C1C3(C)C)[C@]1(OC(C)=O)CO[C@@H]1C[C@@H]2O (stereo not given in full) (H-LVKRFKKFFRKLKKC(X1)VLL-NH2) | Toxic | Dose-dependent effect | 2.15 | 7.17 | Active | 5.9 | 2.69 | 31.6 | inactive | 20.2 | 2.2 | 3.2 | 74.4 | 6.11 | 
 | CC(=O)O[C@H]1C(=O)[C@@]2(C)[C@H]([C@H](OC(=O)c3ccccc3)[C@]3(O)C[C@H](OC(=O)[C@H](OC(=O)CCCCCN4C(=O)CC(SC[C@H](NC(=O)[C@H](CCCNC(=N)N)NC(=O)[C@H](CCCNC(=N)N)NC(=O)[C@H](CC(C)C)NC(=O)[C@H](CCCNC(=N)N)NC(=O)[C@H](CCCNC(=N)N)NC(=O)[C@H](Cc5ccccc5)NC(=O)[C@H](Cc5ccccc5)NC(=O)[C@H](CCCNC(=N)N)NC(=O)[C@H](CCCNC(=N)N)NC(=O)[C@H](Cc5ccccc5)NC(=O)[C@H](CCCNC(=N)N)NC(=O)[C@H](CCCNC(=N)N)NC(=O)[C@@H](NC(=O)[C@@H](N)CC(C)C)C(C)C)C(=O)N[C@H](C(=O)N[C@@H](CC(C)C)C(=O)N[C@@H](CC(C)C)C(N)=O)C(C)C)C4=O)[C@@H](NC(=O)c4ccccc4)c4ccccc4)C(C)=C1C3(C)C)[C@]1(OC(C)=O)CO[C@@H]1C[C@@H]2O (stereo not given in full) (H-LVRRFRRFFRRLRRC(X1)VLL-NH2) | Toxic | Dose-dependent effect | 1.98 | 6.61 | Active | 3.82 | 2.79 | 37.2 |  | 30.2 | 1.7 | 3.6 | 64.7 | 5.53 | 
Active | CC(=O)O[C@H]1C(=O)[C@@]2(C)[C@H]([C@H](OC(=O)c3ccccc3)[C@]3(O)C[C@H](OC(=O)[C@H](OC(=O)CCCCCN4C(=O)CC(SC[C@H](NC(=O)[C@H](CCCCN)NC(=O)[C@H](CCCCN)NC(=O)[C@H](CC(C)C)NC(=O)[C@H](CCCCN)NC(=O)[C@H](CCCNC(=N)N)NC(=O)[C@H](Cc5ccccc5)NC(=O)[C@H](Cc5ccccc5)NC(=O)[C@H](CCCCN)NC(=O)[C@H](CCCCN)NC(=O)[C@H](Cc5ccccc5)NC(=O)[C@H](CCCNC(=N)N)NC(=O)[C@H](CCCCN)NC(=O)[C@@H](NC(=O)[C@H](CC(C)C)NC(=O)CC[C@H](NC(=O)c5ccc(NCc6cnc7nc(N)[nH]c(=O)c7n6)cc5)C(=O)O)C(C)C)C(=O)N[C@H](C(=O)N[C@@H](CC(C)C)C(=O)N[C@@H](CC(C)C)C(N)=O)C(C)C)C4=O)[C@@H](NC(=O)c4ccccc4)c4ccccc4)C(C)=C1C3(C)C)[C@]1(OC(C)=O)CO[C@@H]1C[C@@H]2O (stereo not given in full) ({Pteroyl-γGlu}-LVKRFKKFFRKLKKC(X1)VLL-NH2) | Toxic | Dose-dependent effect | 1.79 | 5.92 | Active | 5.38 | 1.95 | 48.6 | Active | 34.6 | 1.1 | 8 | 56.3 | 4.54 | Activity (MCF7/PTX [11]): Active; Activity (MCF7/PTX [12]): Active; Activity (MCF7/PTX [13]): Active; Activity (MCF7 [14]): Active; Activity (MCF7/PTX [15]): Dose-dependent effect
 | CC(=O)O[C@H]1C(=O)[C@@]2(C)[C@H]([C@H](OC(=O)c3ccccc3)[C@]3(O)C[C@H](OC(=O)[C@H](O)[C@@H](NC(=O)c4ccccc4)c4ccccc4)C(C)=C1C3(C)C)[C@]1(OC(C)=O)CO[C@@H]1C[C@@H]2O [PACLITAXEL] |  |  |  | 6.29 |  | 5.8 | 2.85 | 9.39 |  | 1.5 | 1.3 | 3.9 | 93.2 | 54.8 | inhibition in vivo at 12 µmol/kg [16]: 49%; solubility [17]: 4 µg/mL (≈ 4.68 µM); Activity (Tubulin (Sus scrofa)): Active
 | H-LVKRFKKFFRKLKKCVLL-NH2 |  |  | 12.3 | 14.7 |  | 13.7 | 13.6 | 40.2 |  | 2.6 | 1.6 | 4.6 | 91.1 | 15.2 | 
 | H-LVRRFRRFFRRLRRCVLL-NH2 |  |  | 8.61 | 13.6 |  | 9.49 | 11.5 | 44.5 |  | 9 | 1.7 | 5.7 | 83.5 | 17.1 | Activity (MCF7/PTX [18]): 1.7%; Activity (MCF7/PTX [19]): 5.8%; Activity (MCF7/PTX [20]): 15.9%; half-life at 500 ug/ml [21]: 48 min; Activity (MCF7/PTX [22]): 76.7%
